From US11147786B2, “Methods of treating chronic dry eye disease using C16:1n7-palmitoleate and derivatives thereof” (Tersus Life Sciences, LLC, priority 2014, dated 2021)
Where “and” joins values, the source holds several entries; their conditions need not be identical. Identical values can stand only once. Entries after “also recorded” stand apart in the source; their conditions may differ.

Assays:
Type in all cases: in vivo, human
[1] = system: patients diagnosed with dry eye disease; assay: Patient ranking of symptom improvement, Example 1; details: patient's ranking at day 30, 210 mg daily; one line per patient 1-8
Description: (§1) Patients diagnosed with dry eye disease (as determined by having tear osmolarity over 308 mOsms/L, which is the clinical minimum for dry eyes, per eye) were treated daily with a dietary supplement containing 210 mg of C16:1n7-palmitoleate for 30 days.
(§2) Tear osmolarity for left and right eyes were scored at day 1 and day 30, see Table 1. A tear osmolarity score of below 308 mOsms/L is normal, 308-320 mOsms/L is mild dry eyes, 320-340 mOsms/L is moderate dry eyes, and above 340 mOsms/L is severe dry eye. At day 30, patients also ranked their feeling of improvement of dry eye on a scale of 1-10, see Table 1.

[2] = system: patients with moderate to severe dry eye symptoms/MGD; assay: Tear osmolarity (TL) in patients with dry eye symptoms/MGD, Example 2
Description: (§3) Twenty nine patients, each diagnosed as having moderate to severe dry eye symptoms/MGD, were selected for the study.
(§4) After the initial baseline evaluation, patients received daily doses of a dietary supplement containing 210 mg of C16:1n7-palmitoleate for over 30 days.
(§5) Tear osmolarity (TL) and MGD for left and right eyes (LE and RE respectively) were scored at Day 0 (baseline evaluation) and at the follow-up visit (FV), see Table 2. A tear osmolarity score of below 308 mOsms/L is normal, 308-320 mOsms/L is mild dry eyes, 320-340 mOsms/L is moderate dry eyes, and above 340 mOsms/L is severe dry eye. The terms ‘above’ and ‘below’ refer to values above and below the detectable range of the Tearlab diagnostic device respectively. Patients also recorded their comments regarding perceived improvements of their dry eye symptoms.

[3] = system: patients with moderate to severe dry eye symptoms/MGD; assay: Patient comments on perceived improvement of dry eye symptoms, Example 2; details: patient's comment after 210 mg daily for over 30 days; one line per patient
Description: as §3, §4, §5

[4] = system: patients diagnosed with dry eye disease; assay: Tear osmolarity in patients with dry eye disease, Example 1
Description: as §1, §2

[5] = system: patients with moderate to severe dry eye symptoms/MGD; assay: Meibomian gland dysfunction (MGD) score, Example 2; design: key to Day 0 MGD RE / Day 0 MGD LE / FV MGD RE / FV MGD LE: 1=meibomian glands in all 3 regions secreting/cloudy; 2=meibomian glands in 2 out of 3 regions secreting/cloudy; 3=meibomian glands in 1 out of 3 regions secreting/cloudy; 4=no observable meibomian gland secretion in any of the 3 regions; 2+ and 2,3 are used interchangeably and mean more than ⅔<1; 2+ and 2,3 are used interchangeably and mean more than ⅔<1
From the text: as §3
Patients were classified as having none, mild, or moderate meibomian gland secretion blockage by evaluating the secretion of the meibomian glands in the nasal, central, and temporal regions of the lower eyelid. MGD was scored using a 0-4 grading scale, 4 correlating with severe dysfunction. A summary of the grading scale is provided below: • 1=meibomian glands in all 3 regions secreting/cloudy • 2=meibomian glands in 2 out of 3 regions secreting/cloudy • 3=meibomian glands in 1 out of 3 regions secreting/cloudy • 4=no observable meibomian gland secretion in any of the 3 regions • 2+ and 2,3 are used interchangeably and mean more than ⅔<1.
as §4, §5

Compound: CCCCCC/C=C\CCCCCCCC(=O)O [C16:1n7-palmitoleate]
- Symptom Improvement (Scale of 1-10) [1]: 4 (2×) and 7 (2×) and 6 (2×) and 8 and 3
- Day 0 TL LE ([2]; left eye, Day 0 baseline before treatment, one line per patient): 311 mOsms/L and 307 mOsms/L (2×) and 349 mOsms/L (2×) and 312 mOsms/L and 314 mOsms/L (3×) and above (2×) and 324 mOsms/L and 339 mOsms/L and 308 mOsms/L and 364 mOsms/L (2×) and 361 mOsms/L and 317 mOsms/L (2×) and 302 mOsms/L and 326 mOsms/L and 356 mOsms/L and 320 mOsms/L and 313 mOsms/L and 358 mOsms/L and 323 mOsms/L and 327 mOsms/L
- FV TL LE ([2]; left eye, follow-up visit after 210 mg daily for over 30 days, one line per patient): 317 mOsms/L and 298 mOsms/L and 303 mOsms/L (2×) and 291 mOsms/L and 310 mOsms/L and 316 mOsms/L and 314 mOsms/L and 299 mOsms/L (2×) and 354 mOsms/L and 352 mOsms/L and 330 mOsms/L and 324 mOsms/L and 331 mOsms/L and 327 mOsms/L and 300 mOsms/L and above and 305 mOsms/L and below (2×) and 308 mOsms/L and 323 mOsms/L and 311 mOsms/L and 306 mOsms/L
- Day 0 TL RE ([2]; right eye, Day 0 baseline before treatment, one line per patient 1-29, above/below = outside detectable range of Tearlab device): 321 mOsms/L and 316 mOsms/L and 357 mOsms/L and 311 mOsms/L and 326 mOsms/L and 329 mOsms/L (2×) and 383 mOsms/L and 335 mOsms/L and below and 330 mOsms/L (2×) and 318 mOsms/L and 337 mOsms/L and 324 mOsms/L and 313 mOsms/L and 290 mOsms/L and 293 mOsms/L and 235 mOsms/L and 348 mOsms/L and 310 mOsms/L and 301 mOsms/L and 322 mOsms/L and 308 mOsms/L and 360 mOsms/L and 303 mOsms/L and 351 mOsms/L
- FV TL RE ([2]; right eye, follow-up visit after 210 mg daily for over 30 days, one line per patient): 284 mOsms/L and 302 mOsms/L (3×) and 301 mOsms/L and 295 mOsms/L and 307 mOsms/L (2×) and 304 mOsms/L and 348 mOsms/L and 354 mOsms/L and 352 mOsms/L and 345 mOsms/L and 309 mOsms/L and 314 mOsms/L and 318 mOsms/L (2×) and 355 mOsms/L and below (2×) and 294 mOsms/L and 303 mOsms/L and 308 mOsms/L and 311 mOsms/L and 235 mOsms/L
- Comment (perceived improvement of dry eye symptoms) [3]: great (4×) and good (19×) and poor and Better and happy (2×) and better
- Tear Osmolarity Day 1, left eye ([4]; Day 1 (start of treatment), left eye, one line per patient 1-8, below 308 normal, 308-320 mild, 320-340 moderate, above 340 severe): Left eye 294 mOsms/L; also recorded: Left eye 333 mOsms/L; also recorded: Left eye 312 mOsms/L; also recorded: Left eye 351 mOsms/L; also recorded: Left eye 322 mOsms/L; also recorded: Left eye 314 mOsms/L; also recorded: Left eye 347 mOsms/L; also recorded: Left eye 332 mOsms/L
- Tear Osmolarity Day 1, right eye ([4]; Day 1 (start of treatment), right eye, one line per patient 1-8): Right eye 362 mOsms/L; also recorded: Right eye 305 mOsms/L; also recorded: Right eye 340 mOsms/L; also recorded: Right eye 382 mOsms/L; also recorded: Right eye 325 mOsms/L; also recorded: Right eye 341 mOsms/L; also recorded: Right eye 328 mOsms/L; also recorded: Right eye 367 mOsms/L
- Tear Osmolarity Day 30, left eye ([4]; Day 30 of daily dietary supplement with 210 mg, left eye, one line per patient 1-8): Left eye 300 mOsms/L; also recorded: Left eye 302 mOsms/L; also recorded: Left eye 293 mOsms/L; also recorded: Left eye 314 mOsms/L; also recorded: Left eye 301 mOsms/L; also recorded: Left eye 308 mOsms/L; also recorded: Left eye 313 mOsms/L
- Tear Osmolarity Day 30, right eye ([4]; Day 30 of daily dietary supplement with 210 mg, right eye, one line per patient 1-8): Right eye 314 mOsms/L; also recorded: Right eye 300 mOsms/L; also recorded: Right eye 308 mOsms/L; also recorded: Right eye 302 mOsms/L; also recorded: Right eye 299 mOsms/L; also recorded: Right eye 307 mOsms/L; also recorded: Right eye 367 mOsms/L; also recorded: Right eye 310 mOsms/L
- Dry eye severity after 30 days in patients with at least one severe dry eye initially ([4]; patients 1, 2, 5 and 7, 30 days of treatment): normal or very mild dry eyes
- Day 0 MGD LE ([5]; MGD score 0-4 (4 severe), left eye, Day 0 baseline before treatment, one line per patient): 2 (2×) and 4 (14×) and 2+ (2×) and 3 (8×)
- Day 0 MGD RE ([5]; MGD score 0-4 (4 severe), right eye, Day 0 baseline before treatment, one line per patient): 3 (9×) and 4 (14×) and 2+ (2×) and 2
- FV MGD LE ([5]; MGD score 0-4, left eye, follow-up visit after 210 mg daily for over 30 days, one line per patient): 1 (8×) and 3 (6×) and 2 (7×) and 1, and 2+ and 4 (4×) and 0
- FV MGD RE ([5]; MGD score 0-4, right eye, follow-up visit after 210 mg daily for over 30 days, one line per patient): 1 (9×) and 3 (5×) and 2+ and 2 (6×) and 1, and 4 (5×) and 0
- MG secretion in patients with severe MGD scores initially ([5]; patients 1, 4-7, 11-13, 15-16, 20-22, 24 and 27): showed improvement in MG secretion
